The results in this text go back to PubChem BioAssay (NCI).

Molecules are shown by their SMILES.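 Assay format: 96-well plates, 48-hour exposure. At the GI50, growth is halved. TGI marks complete inhibition of growth.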 Where a SMILES comes first, the peptide text is derived from it. [ ]: non-standard residue; d: D form. The star is where a group is joined. ξ: configuration not given here. NMeY = CN[C@@H](Cc1ccc(O)cc1)C(=O)O; Cbz = O=C(OCc1ccccc1)*; ξA = CC(N)C(=O)O

Among the test systems are MDA-MB-231 breast; SNB-75 CNS; SK-OV-3 ovarian; NCI/ADR-RES ovarian; CAKI-1 renal; A549 NSCLC; RPMI-8226 leukemia; OVCAR-5 ovarian; UACC-257 melanoma.
What all share (test): inhibition of tumour cell growth, NCI panel, 48 h

On to `COc1ccc(/C=N/Nc2[nH]c(=S)nc3[nH]ncc23)cc1`, for which the TGI in the test with MDA-MB-231 breast, in the test with SNB-75 CNS, with SK-OV-3 ovarian, with NCI/ADR-RES ovarian, in the test on CAKI-1 renal and with A549 NSCLC was over 100 µM throughout. Further, the TGI in the test on RPMI-8226 leukemia, with OVCAR-5 ovarian and in the test on UACC-257 melanoma was over 100 µM in each case.

Take `COc1ccc(C2CC(c3c(C)nn(-c4ccccc4)c3-c3ccc(C)cc3O)=NN2c2ccccc2)cc1` (centres undefined): the TGI in the test with MDA-MB-231 breast, in the test on SNB-75 CNS, in the test on SK-OV-3 ovarian, with NCI/ADR-RES ovarian, with CAKI-1 renal and in the test with A549 NSCLC was over 100 µM each time. Besides, the TGI with RPMI-8226 leukemia, in the test on OVCAR-5 ovarian and in the test with UACC-257 melanoma was over 100 µM in each case.

In the case of `COc1ccccc1C(=O)c1c(N2CCCCC2)c(=O)c1=O`, the TGI with MDA-MB-231 breast, with SNB-75 CNS, with SK-OV-3 ovarian, in the test on NCI/ADR-RES ovarian, with CAKI-1 renal and in the test with A549 NSCLC was over 100 µM each time. Also, the TGI in the test with RPMI-8226 leukemia, with OVCAR-5 ovarian and in the test on UACC-257 melanoma was over 100 µM throughout.

With `CN(C)CCCn1c2ccccc2c2cnccc21`, the TGI in the test on MDA-MB-231 breast, with SNB-75 CNS, in the test on SK-OV-3 ovarian, in the test with NCI/ADR-RES ovarian, with CAKI-1 renal and in the test on A549 NSCLC was over 100 µM in each case. Besides, the TGI with RPMI-8226 leukemia is 71.6 µM; in the test with OVCAR-5 ovarian it was over 100 µM; in the test on UACC-257 melanoma it was 39.3 µM.

In the case of `CCCCCCCCCCCCCCCCOCC(CC(F)(F)P(=O)(O)O)OC(C)=O` (centres undefined), the TGI with MDA-MB-231 breast, with SNB-75 CNS, with SK-OV-3 ovarian, in the test with NCI/ADR-RES ovarian, with CAKI-1 renal and in the test on A549 NSCLC was over 50 µM in each case. Also, the TGI in the test with RPMI-8226 leukemia, with OVCAR-5 ovarian and with UACC-257 melanoma was over 50 µM each time.

For the molecule `O=C(Nc1cccc2nsnc12)c1cc2c(cc1Cl)Sc1nccn1S2(=O)=O`, the TGI in the test with MDA-MB-231 breast was 21.9 µM; in the test on SNB-75 CNS it was 35.9 µM; in the test with SK-OV-3 ovarian, over 100 µM; in the test with NCI/ADR-RES ovarian, 42.6 µM; in the test on CAKI-1 renal, 25.7 µM; in the test on A549 NSCLC, 56.1 µM. The values for the TGI in the test on RPMI-8226 leukemia, in the test with OVCAR-5 ovarian and with UACC-257 melanoma were 4.96 µM, over 91.6 µM and 3.49 µM, respectively.

Take `Cn1c(N)c(/C=N/NC(=O)CC#N)c(=O)n(C)c1=O`: the TGI with MDA-MB-231 breast, in the test on SNB-75 CNS, in the test with SK-OV-3 ovarian, with NCI/ADR-RES ovarian, in the test on CAKI-1 renal and in the test with A549 NSCLC was over 100 µM in each case. The TGI with RPMI-8226 leukemia, with OVCAR-5 ovarian and with UACC-257 melanoma was over 100 µM throughout.

Turning to `N#Cc1c(N)c(-c2ccc(Cl)cc2)c(F)c2ccccc12`, the TGI in the test on MDA-MB-231 breast, with SNB-75 CNS, with SK-OV-3 ovarian, with NCI/ADR-RES ovarian, in the test with CAKI-1 renal and in the test with A549 NSCLC was over 100 µM throughout. Moreover, the TGI in the test with RPMI-8226 leukemia, with OVCAR-5 ovarian and in the test with UACC-257 melanoma was over 100 µM in each case.

In the case of `C=C[C@]1(C)CC[C@]2(C)C(CC[C@@]3(C)C2C[C@H](O)[C@H](O)[C@@]3(C)O)C1` (some centres undefined), the TGI in the test on MDA-MB-231 breast, in the test with SNB-75 CNS, in the test with SK-OV-3 ovarian, in the test with NCI/ADR-RES ovarian, in the test with CAKI-1 renal and in the test on A549 NSCLC was over 100 µM throughout. Also, the TGI in the test on RPMI-8226 leukemia, in the test on OVCAR-5 ovarian and with UACC-257 melanoma was over 100 µM throughout.

With `O=C1c2cc(Cl)ccc2-n2c(noc2=O)C2CSCN12` (centres undefined), the TGI in the test with MDA-MB-231 breast, in the test on SNB-75 CNS, in the test on SK-OV-3 ovarian, with NCI/ADR-RES ovarian, in the test with CAKI-1 renal and in the test on A549 NSCLC was over 100 µM in each case. Moreover, the TGI with RPMI-8226 leukemia, with OVCAR-5 ovarian and with UACC-257 melanoma was over 100 µM each time.

Consider `Cc1ccc(S(=O)(=O)Nn2c(-c3ccccc3)c(C#N)c(-c3ccc([N+](=O)[O-])cc3)c(C#N)c2=O)cc1`, for which the TGI in the test on MDA-MB-231 breast, in the test on SNB-75 CNS, with SK-OV-3 ovarian, with NCI/ADR-RES ovarian, with CAKI-1 renal and in the test on A549 NSCLC was over 100 µM each time. In addition, the TGI with RPMI-8226 leukemia is 64.3 µM; with OVCAR-5 ovarian, over 100 µM; in the test with UACC-257 melanoma, over 100 µM.

In the case of `CC1CN=C(c2cccc(OCc3ccc(COc4cccc(C5=NCC(C)N5)c4)cc3)c2)N1` (centres undefined), the TGI with MDA-MB-231 breast is over 100 µM; in the test with SNB-75 CNS it was 91.4 µM; with SK-OV-3 ovarian, over 100 µM; in the test on NCI/ADR-RES ovarian, over 100 µM; with CAKI-1 renal, over 100 µM; in the test with A549 NSCLC, over 100 µM. Further, the TGI is 45.4 µM in the test on RPMI-8226 leukemia, over 100 µM in the test on OVCAR-5 ovarian and 44.8 µM in the test with UACC-257 melanoma.

With `O=C(Cn1c2ccc(Br)cc2c2nc3ccccc3nc21)NC1CCCCC1`, the TGI in the test with MDA-MB-231 breast, in the test on SNB-75 CNS, in the test with SK-OV-3 ovarian, in the test on NCI/ADR-RES ovarian, in the test on CAKI-1 renal and with A549 NSCLC was over 100 µM throughout. The TGI in the test on RPMI-8226 leukemia, in the test on OVCAR-5 ovarian and in the test with UACC-257 melanoma was over 100 µM in each case.

With `c1ccc2c(c1)CC1c3[nH]c4ccccc4c3CCN21` (centres undefined), the TGI in the test with MDA-MB-231 breast, in the test on SNB-75 CNS, in the test with SK-OV-3 ovarian, in the test on NCI/ADR-RES ovarian, with CAKI-1 renal and in the test on A549 NSCLC was over 10 µM throughout. The TGI in the test with RPMI-8226 leukemia, in the test with OVCAR-5 ovarian and in the test with UACC-257 melanoma was over 10 µM in each case.

Regarding `COc1ccc(C[C@@H](C(=O)NCC(N)=O)N(C)C(=O)[C@@H]2CCCN2C(=O)[C@H](CC(C)C)NC(=O)C(C)NC(=O)OCc2ccccc2)cc1` (some centres undefined) (Cbz-[ξA]LP[NMeY](Me)G-NH2), the TGI in the test with MDA-MB-231 breast, in the test on SNB-75 CNS, with SK-OV-3 ovarian, in the test with NCI/ADR-RES ovarian, in the test on CAKI-1 renal and in the test on A549 NSCLC was over 100 µM in each case. Also, the TGI in the test with RPMI-8226 leukemia, with OVCAR-5 ovarian and in the test with UACC-257 melanoma was over 100 µM in each case.

As for `O=C1c2ccccc2NC2C(O)c3ccccc3N12` (centres undefined), the TGI in the test on MDA-MB-231 breast was over 100 µM; in the test on SNB-75 CNS it was over 100 µM; in the test on SK-OV-3 ovarian, over 100 µM; in the test on NCI/ADR-RES ovarian, over 100 µM; with CAKI-1 renal, over 100 µM; in the test on A549 NSCLC, 61.5 µM. The results for the TGI with RPMI-8226 leukemia, in the test on OVCAR-5 ovarian and with UACC-257 melanoma were 54.3 µM, over 100 µM and 37.7 µM, respectively.

Consider `O=C1c2cc3c(cc2CC12Cc1cc4c(cc1C2)CCC4)CCC3`, for which the TGI in the test on MDA-MB-231 breast, in the test on SNB-75 CNS, in the test with SK-OV-3 ovarian, in the test with NCI/ADR-RES ovarian, with CAKI-1 renal and with A549 NSCLC was over 100 µM each time. The TGI in the test with RPMI-8226 leukemia, in the test with OVCAR-5 ovarian and with UACC-257 melanoma was over 100 µM each time.

On to `COc1cn2c(cc1=O)COc1ccc(-c3ccccc3)cc1-2`, for which, in the test on MDA-MB-231 breast, the GI50 was over 100 µM. For the same molecule, the TGI with MDA-MB-231 breast was over 100 µM; with SNB-75 CNS, over 100 µM; in the test on SK-OV-3 ovarian, over 100 µM; in the test on NCI/ADR-RES ovarian, over 100 µM; in the test on CAKI-1 renal it was over 100 µM; in the test on A549 NSCLC, 99.5 µM. Further, the TGI in the test on RPMI-8226 leukemia was over 100 µM; with OVCAR-5 ovarian, over 100 µM; in the test on UACC-257 melanoma, over 87.1 µM.

Take `CCOC(=O)c1cc(-c2ccc(OC)c(OC)c2)c[nH]1`: the TGI in the test on MDA-MB-231 breast, with SNB-75 CNS, in the test on SK-OV-3 ovarian, in the test with NCI/ADR-RES ovarian, in the test with CAKI-1 renal and with A549 NSCLC was over 10 µM throughout. Moreover, the TGI with RPMI-8226 leukemia, in the test with OVCAR-5 ovarian and with UACC-257 melanoma was over 10 µM in each case.

Take `NC(N)=N/N=C(\c1ccc(Cl)cc1)C1CC1`: the TGI in the test with MDA-MB-231 breast was 34.9 µM; in the test with SNB-75 CNS it was 68.9 µM; in the test with SK-OV-3 ovarian, 78.7 µM; with NCI/ADR-RES ovarian, 61.2 µM; in the test with CAKI-1 renal, over 100 µM; in the test on A549 NSCLC it was over 100 µM. Also, the values for the TGI in the test on RPMI-8226 leukemia, with OVCAR-5 ovarian and in the test on UACC-257 melanoma were 37.9 µM, 39.3 µM and 28 µM, respectively.

With `O=C(c1ccccc1F)c1c(NCc2ccccc2)c(=O)c1=O`, the TGI in the test with MDA-MB-231 breast, in the test with SNB-75 CNS, in the test on SK-OV-3 ovarian, with NCI/ADR-RES ovarian, in the test with CAKI-1 renal and with A549 NSCLC was over 100 µM each time. Further, the TGI in the test on RPMI-8226 leukemia, in the test on OVCAR-5 ovarian and with UACC-257 melanoma was over 100 µM in each case.

Take `CCCCCCCCCCCCOC1C(COCCN2CCCC2)OC2OC(C)(C)OC21` (centres undefined): the TGI was 2.92 µM in the test on MDA-MB-231 breast; 3.75 µM with SNB-75 CNS; 3.33 µM in the test on SK-OV-3 ovarian; 4.37 µM in the test on NCI/ADR-RES ovarian; 3.04 µM in the test with CAKI-1 renal; 16.1 µM in the test with A549 NSCLC. Further, the TGI in the test with RPMI-8226 leukemia came to 12.1 µM; in the test on OVCAR-5 ovarian, 2.88 µM; with UACC-257 melanoma it was 3.14 µM.
